Like-named read-outs stand apart in the source and are kept apart here.
Experiments:
[1] = Stability Test-2: odor of cream stored at 50° C.; assay type: physicochemical; conditions: 10 panelists
From the text: • Evaluation was made by 10 panelists according to the following criteria. • 3: Almost odorless. • 2: There is a slight strange odor. • 1: A strong odor is detected. • Based on the results of the above evaluation, the following classification was made: • ◯: Total score of 10 panelists is 25 or more • Δ: Total score of 10 panelists is 16-24 • x: The total score of 10 panelists is 15 or less
(§1) For each of the samples of Synthesis Examples 9 to 32, (a) and (b) shown in Table 12 were each heated and mixed. After cooling, (c) shown in Table 12 was added to prepare a cream with a pH of 7 or 9. […] The odor and coloration were also evaluated according to the same method and criteria as in Test Example 1. The results regarding the residual rate are shown in Tables 13 and 14, and the results regarding the odor and coloration are shown in Tables 15 and 16.

[2] = tested on: Normal human dermal fibroblasts (NHDF); assay: Hyaluronic acid production promoting effect (ELISA of hyaluronic acid in supernatant); assay type: cell-based; conditions: 10 mM or less, 48 hours, control group set to 100%, N=3
Protocol: Normal human dermal fibroblasts (NHDF) were prepared in D-MEM containing 5% (v/v) fetal bovine serum to a cell density of 2.5×10^4 cells/well, and then pre-incubated on a 96-well plate for 24 hours. After removing the medium, samples prepared in serum-free D-MEM were added to each well and cultured for 48 hours. After the culture was completed, the amount of hyaluronic acid in the supernatant was quantified by ELISA. Measurements were performed in triplicate (N=3).
The amount of hyaluronic acid produced when the sample was measured at a concentration of 10 mM or less was compared with that of the control group, and the results (% values when the control group is set to 100%) are shown in Tables 18 to 20 based on the following criteria.

[3] = Stability Test-2: residual rate in cream of pH 7 or 9 stored at 50° C.; assay type: physicochemical
Protocol: as §1

[4] = Stability Test-2: coloration of cream stored at 50° C.; assay type: physicochemical; conditions: 10 panelists
From the text: • Evaluation was made by 10 panelists according to the following criteria. • 3: Almost no change compared to immediately after preparation. • 2: Color changes compared to immediately after preparation. • 1: Strongly colored compared to immediately after preparation. • Based on the results of the above evaluation, the following classification was made:
as §1

[5] = Stability Test-1: residual rate of 1% aqueous solutions stored at 50° C. (HPLC); assay type: physicochemical; conditions: water, 1% aqueous solution; for remaining at 336 h: after 2 weeks, read-out: Residual Rate; for remaining at 672 h: after 4 weeks
Protocol: For each of the samples of Synthesis Examples 1 to 6, 1% aqueous solutions were adjusted to pH 3, 5, 7, 8, and 9 with a dilute potassium hydroxide aqueous solution, and then placed in 50 mL screw tubes and sealed. […] Furthermore, the odor and coloration of the samples adjusted to pH 7 were evaluated based on the following methods and criteria, and the results are shown in Table 11.
• ⊚: 80% or more • ◯: 50% or more, less than 80% • Δ: 30% or more, less than 50% • x: Less than 30%

[6] = cream pH 7, 50° C., after 2 weeks, 20160 min
[7] = cream pH 7, 50° C., after 4 weeks, 40320 min
[8] = cream pH 9, 50° C., after 2 weeks, 20160 min
[9] = cream pH 9, 50° C., after 4 weeks, 40320 min

| Structure (SMILES) | Odor ([1]; after 4 weeks) | Residual Rate [3, 6] | Residual Rate [3, 7] | Residual Rate [3, 8] | Residual Rate [3, 9] | Odor ([1]; after 2 weeks) | Hyaluronic acid production-promoting effect [2] | Coloration ([4]; after 2 weeks) | Coloration ([4]; after 4 weeks) | other results |
| --- | --- | --- | --- | --- | --- | --- | --- | --- | --- | --- |
| CCCCCCCCCCCCCCCC(=O)OCC(OC(=O)CCCCCCCCCCCCCCC)C1OC(=O)C2=C1OCCCCO2 (stereo not shown) [Synthesis Example 16, 5,6-O-dipalmitoyl-2,3-O-(1,4-butanediyl) ascorbic acid] | Δ (Total score of 10 panelists is 16-24) | ⊚ (95% or more) | ⊚ (95% or more) | ⊚ (95% or more) | ⊚ (95% or more) | ◯ (Total score of 10 panelists is 25 or more) | ++ (120%<) | ◯ (Total score of 10 panelists is 25 or more) | ◯ (Total score of 10 panelists is 25 or more) |  |
| CC1(C)OCC(C2OC(=O)C3=C2OCCCO3)O1 (stereo not shown) [Synthesis Example 36, 5,6-O-isopropylidene-2,3-O-(1,3-propanediyl) ascorbic acid] |  |  |  |  |  |  | ++ (120%<) |  |  |  |
| CCCCCCCCC(CCCCCC)C(=O)OC[C@H](OC(=O)C(CCCCCC)CCCCCCCC)[C@H]1OC(=O)C(OC(=O)C(CCCCCC)CCCCCCCC)=C1OC(=O)C(CCCCCC)CCCCCCCC (stereo partly shown) [Ascorbyl tetrahexyldecanoate, reference compound] | Δ (Total score of 10 panelists is 16-24) | ∘ (85% or more, less than 95%) | x (Less than 85%) | ∘ (85% or more, less than 95%) | x (Less than 85%) | ◯ (Total score of 10 panelists is 25 or more) |  | ◯ (Total score of 10 panelists is 25 or more) | Δ (Total score of 10 panelists is 16-24) |  |
| O=C1OC(C2COC(c3ccccc3)O2)C2=C1OCCCO2 (stereo not shown) [Synthesis Example 38, 5,6-O-(phenylmethylene)-2,3-O-(1,3-propanediyl) ascorbic acid] |  |  |  |  |  |  | ++ (120%<) |  |  |  |
| CC1(C)OCC(C2OC(=O)C3=C2OCCCCO3)O1 (stereo not shown) [Synthesis Example 35, 5,6-O-isopropylidene-2,3-O-(1,4-butanediyl) ascorbic acid] |  |  |  |  |  |  | ++ (120%<) |  |  |  |
| CC(C)CCCCCCCCCCCCCCC(=O)OCC(OC(=O)CCCCCCCCCCCCCCC(C)C)C1OC(=O)C2=C1OCCO2 (stereo not shown) [Synthesis Example 32, 5,6-O-diisostearoyl-2,3-O-(1,2-ethanediyl) ascorbic acid] | Δ (Total score of 10 panelists is 16-24) | ⊚ (95% or more) | ⊚ (95% or more) | ⊚ (95% or more) | ⊚ (95% or more) | ◯ (Total score of 10 panelists is 25 or more) |  | ◯ (Total score of 10 panelists is 25 or more) | ◯ (Total score of 10 panelists is 25 or more) |  |
| O=C1O[C@H]([C@@H](O)CO)C(OCC(O)CO)=C1OCC(O)CO (stereo partly shown) [Bisglyceryl ascorbic acid, reference compound] |  |  |  |  |  |  |  |  |  | remaining at 336 h ([5]; pH 3, 50° C.): ≥ 80%; remaining at 672 h ([5]; pH 3, 50° C.): ≥ 80%; remaining at 336 h ([5]; pH 5, 50° C.): ≥ 80%; remaining at 672 h ([5]; pH 5, 50° C.): ≥ 80%; remaining at 336 h ([5]; pH 7, 50° C.): < 30%; remaining at 672 h ([5]; pH 7, 50° C.): < 30%; remaining at 336 h ([5]; pH 8, 50° C.): < 30%; remaining at 672 h ([5]; pH 8, 50° C.): < 30%; remaining at 336 h ([5]; pH 9, 50° C.): < 30%; remaining at 672 h ([5]; pH 9, 50° C.): < 30% |
| CCCCCCCCCCCCCCCC(=O)OC[C@H](O)[C@H]1OC(=O)C(OP(=O)(O)O)=C1O [Ascorbyl phosphate 3Na palmitate, reference compound] |  |  |  |  |  |  | ± (<100%) |  |  |  |
| CCCCCCCCCCCCCCCC(=O)OCC(OC(=O)CCC)C1OC(=O)C2=C1OCCCO2 (stereo not shown) [Synthesis Example 30, 5-O-butanoyl-6-O-palmitoyl-2,3-O-(1,3-propanediyl) ascorbic acid] | Δ (Total score of 10 panelists is 16-24) | ⊚ (95% or more) | ⊚ (95% or more) | ⊚ (95% or more) | ⊚ (95% or more) | ◯ (Total score of 10 panelists is 25 or more) |  | ◯ (Total score of 10 panelists is 25 or more) | ◯ (Total score of 10 panelists is 25 or more) |  |

Continued, in another order:

| Odor ([1]; after 4 weeks) | Residual Rate [3, 6] | Residual Rate [3, 7] | Residual Rate [3, 8] | Residual Rate [3, 9] | Structure (SMILES) | Odor ([1]; after 2 weeks) | Hyaluronic acid production-promoting effect [2] | Coloration ([4]; after 2 weeks) | Coloration ([4]; after 4 weeks) | other results |
| --- | --- | --- | --- | --- | --- | --- | --- | --- | --- | --- |
| Δ (Total score of 10 panelists is 16-24) | ⊚ (95% or more) | ⊚ (95% or more) | ⊚ (95% or more) | ⊚ (95% or more) | CC(C)CCCCCCCCCCCCCCC(=O)OCC(O)C1OC(=O)C2=C1OCCCO2 (stereo not shown) [Synthesis Example 28, 6-O-isostearoyl-2,3-O-(1,3-propanediyl) ascorbic acid] | ◯ (Total score of 10 panelists is 25 or more) | ++ (120%<) | ◯ (Total score of 10 panelists is 25 or more) | ◯ (Total score of 10 panelists is 25 or more) |  |
| Δ (Total score of 10 panelists is 16-24) | ⊚ (95% or more) | ⊚ (95% or more) | ⊚ (95% or more) | ∘ (85% or more, less than 95%) | CCCCCCCC(=O)OCC(O)C1OC(=O)C2=C1OCCCCO2 (stereo not shown) [Synthesis Example 11, 6-O-octanoyl-2,3-O-(1,4-butanediyl) ascorbic acid] | ◯ (Total score of 10 panelists is 25 or more) | ++ (120%<) | ◯ (Total score of 10 panelists is 25 or more) | ◯ (Total score of 10 panelists is 25 or more) |  |
| Δ (Total score of 10 panelists is 16-24) | ⊚ (95% or more) | ⊚ (95% or more) | ⊚ (95% or more) | ◯ (85% or more, less than 95%) | CCCCCCCCCCCCCCCC(=O)OCC(O)C1OC(=O)C2=C1OCCCO2 (stereo not shown) [Synthesis Example 26, 6-O-palmitoyl-2,3-O-(1,3-propanediyl) ascorbic acid] | ◯ (Total score of 10 panelists is 25 or more) | ++ (120%<) | ◯ (Total score of 10 panelists is 25 or more) | Δ (Total score of 10 panelists is 16-24) |  |
| Δ (Total score of 10 panelists is 16-24) | ⊚ (95% or more) | ⊚ (95% or more) | ⊚ (95% or more) | ⊚ (95% or more) | CC(C)CCCCCCCCCCCCCCC(=O)OCC(O)C1OC(=O)C2=C1OCCO2 (stereo not shown) [Synthesis Example 31, 6-O-isostearoyl-2,3-O-(1,2-ethanediyl) ascorbic acid] | ◯ (Total score of 10 panelists is 25 or more) | ++ (120%<) | ◯ (Total score of 10 panelists is 25 or more) | ◯ (Total score of 10 panelists is 25 or more) |  |
| Δ (Total score of 10 panelists is 16-24) | ⊚ (95% or more) | ⊚ (95% or more) | ⊚ (95% or more) | ⊚ (95% or more) | CCCCCCCC(=O)OC[C@H](OC(=O)CCC)[C@H]1OC(=O)C2=C1OCCCCO2 [Synthesis Example 19, 5-O-butanoyl-6-O-octanoyl-2,3-O-(1,4-butanediyl) ascorbic acid] | ◯ (Total score of 10 panelists is 25 or more) |  | ◯ (Total score of 10 panelists is 25 or more) | ◯ (Total score of 10 panelists is 25 or more) |  |

Source: patent US20260294769A1, “ASCORBIC ACID DERIVATIVES AND COSMETIC THEREOF” (SEIWA KASEI COMPANY, LIMITED, priority 2023, published 2026)
